Results from patent US8658568B2, “6-amino-2-substituted-5-vinylsilylpyrimidine-4-carboxylic acids and esters and 4-amino-6-substituted-3-vinylsilylpyridine-2-carboxylic acids and esters as herbicides” (Dow AgroSciences, LLC., priority 2011, dated 2014).

Tests used:
[1] = test system: AMARE = redroot pigweed (Amaranthus retroflexus); experiment: Postemergence herbicidal activity, redroot pigweed; assay type: in vivo; details: post-emergence, 336 h, post-emergent, rate 140 g ai/ha, visual score after 14 days (0 no injury, 100 complete kill), read-out: % Growth Reduction AMARE
Description: (§1) Evaluation of Postemergence Herbicidal Activity
(§2) Seeds or nutlets of the desired test plant species were planted in Sun Gro MetroMix® 306 planting mixture, which typically has a pH of 6.0 to 6.8 and an organic matter content of about 30 percent, in plastic pots with a surface area of 64 square centimeters. When required to ensure good germination and healthy plants, a fungicide treatment and/or other chemical or physical treatment was applied. The plants were grown for 7-21 days in a greenhouse with an approximate 15 hour photoperiod which was maintained at about 23-29° C. during the day and 22-28° C. during the night. Nutrients and water were added on a regular basis and supplemental lighting was provided with overhead metal halide 1000-Watt lamps as necessary. The plants were employed for testing when they reached the first or second true leaf stage.
(§3) A weighed amount, determined by the highest rate to be tested, of each test compound was placed in a 25 mL glass vial and was dissolved in 4 mL of a 97:3 v/v (volume/volume) mixture of acetone and dimethyl sulfoxide (DMSO) to obtain concentrated stock solutions. […] The concentrated stock solutions obtained were diluted with 20 mL of an aqueous mixture containing acetone, water, isopropyl alcohol, DMSO, Atplus 411F crop oil concentrate, and Triton® X-155 surfactant in a 48.5:39:10:1.5:1.0:0.02 v/v ratio to obtain spray solutions containing the highest application rates. Additional application rates were obtained by serial dilution of 12 mL of the high rate solution into a solution containing 2 mL of 97:3 (v/v) mixture of acetone and dimethyl sulfoxide (DMSO) and 10 mL of an aqueous mixture containing acetone, water, isopropyl alcohol, DMSO, Atplus 411F crop oil concentrate, and Triton X-155 surfactant in a 48.5:39:10:1.5:1.0:0.02 (v/v) ratio to obtain 1/2 ×, 1/4 ×, 1/8× and 1/16× rates of the high rate. Compound requirements are based upon a 12 mL application volume at a rate of 187 L/ha. Formulated compounds were applied to the plant material with an overhead Mandel track sprayer equipped with a 8002E nozzles calibrated to deliver 187 L/ha over an application area of 0.503 square meters at a spray height of 18 inches (43 cm) above the average plant canopy height. Control plants were sprayed in the same manner with the solvent blank.
(§4) The treated plants and control plants were placed in a greenhouse as described above and watered by sub-irrigation to prevent wash-off of the test compounds. After 14 days, the condition of the test plants as compared with that of the untreated plants was determined visually and scored on a scale of 0 to 100 percent where 0 corresponds to no injury and 100 corresponds to complete kill
(§5) By applying the well-accepted probit analysis as described by J. Berkson in Journal of the […], 48, 565 (1953) and by D. Finney in “Probit Analysis” Cambridge University Press (1952), the above data can be used to calculate GR50 and GR80 values, which are defined as growth reduction factors that correspond to the effective dose of herbicide required to kill or control 50 percent or 80 percent, respectively, of a target plant.

[2] = test system: IPOHE = ivyleaf morningglory (Ipomoea hederacea); experiment: Postemergence herbicidal activity, ivyleaf morningglory; assay type: in vivo; details: post-emergence, 336 h, post-emergent, rate 140 g ai/ha, visual score after 14 days (0 no injury, 100 complete kill), read-out: % Growth Reduction IPOHE
Description: as §1, §2, §3, §4, §5

[3] = test system: HELAN = sunflower (Helianthus annuus); experiment: Postemergence herbicidal activity, sunflower; assay type: in vivo; details: post-emergence, 336 h, post-emergent, rate 140 g ai/ha, visual score after 14 days (0 no injury, 100 complete kill), read-out: % Growth Reduction HELAN
Description: as §1, §2, §3, §4, §5

[4] = test system: ECHCG = barnyardgrass (Echinochloa crus-galli); experiment: Postemergence herbicidal activity, barnyardgrass; assay type: in vivo; details: post-emergence, 336 h, post-emergent, rate 140 g ai/ha, visual score after 14 days (0 no injury, 100 complete kill), read-out: % Growth Reduction ECHCG
Description: as §1, §2, §3, §4, §5

[5] = test system: EPHHL = wild poinsettia (Euphorbia heterophylla); experiment: Postemergence herbicidal activity, wild poinsettia; assay type: in vivo; details: post-emergence, 336 h, post-emergent, rate 140 g ai/ha, visual score after 14 days (0 no injury, 100 complete kill), read-out: % Growth Reduction EPHHL
Description: as §1, §2, §3, §4, §5

[6] = test system: ABUTH = velvetleaf (Abutilon theophrasti); experiment: Postemergence herbicidal activity, velvetleaf; assay type: in vivo; details: post-emergence, 336 h, post-emergent, rate 140 g ai/ha, visual score after 14 days (0 no injury, 100 complete kill), read-out: % Growth Reduction ABUTH
Description: as §1, §2, §3, §4, §5

[7] = test system: CHEAL = lambsquarters (Chenopodium album); experiment: Postemergence herbicidal activity, lambsquarters; assay type: in vivo; details: post-emergence, 336 h, post-emergent, rate 140 g ai/ha, visual score after 14 days (0 no injury, 100 complete kill), read-out: % Growth Reduction CHEAL
Description: as §1, §2, §3, §4, §5

Row | Compound | pest or weed control at 140 g/ha [1] | melting point | pest or weed control at 140 g/ha [2] | pest or weed control at 140 g/ha [3] | pest or weed control at 140 g/ha [4] | pest or weed control at 140 g/ha [5] | pest or weed control at 140 g/ha [6] | pest or weed control at 140 g/ha [7]
1 | COC(=O)c1nc(-c2ccc(Cl)c(OC)c2F)nc(N)c1/C=C/[Si](C)(C)C [Compound 2, (E)-methyl 6-amino-2-(4-chloro-2-fluoro-3-methoxyphenyl)-5-(2-(trimethylsilyl)vinyl)-pyrimidine-4-carboxylate] | 100% | 161 to 163 °C | 90% | 100% | 98% | 100% | 98% | –
2 | C[Si](C)(C)/C=C/c1c(N)nc(-c2ccc(Cl)c(F)c2F)nc1C(=O)O [Compound 5, (E)-6-amino-2-(4-chloro-2,3-difluorophenyl)-5-(2-(trimethylsilyl)vinyl)pyrimidine-4-carboxylic acid] | 90% | – | 60% | 90% | 50% | 100% | 100% | 100%
3 | COc1c(Cl)ccc(-c2nc(N)c(/C=C/[Si](C)(C)C)c(C(=O)O)n2)c1F [Compound 6, (E)-6-amino-2-(4-chloro-2-fluoro-3-methoxyphenyl)-5-(2-(trimethylsilyl)vinyl)pyrimidine-4-carboxylicacid] | 100% | 108 to 110 °C | 95% | 100% | 100% | 100% | 100% | 100%
4 | C[Si](C)(C)/C=C/c1c(N)nc(-c2ccc(Cl)cc2F)nc1C(=O)O [Compound 7, (E)-6-amino-2-(4-chloro-2-fluorophenyl)-5-(2-(trimethylsilyl)vinyl)pyrimidine-4-carboxylic acid] | 100% | – | 70% | 90% | 80% | 100% | 100% | 100%
5 | COC(=O)c1nc(-c2ccc(Cl)c(F)c2)c(F)c(N)c1/C=C/[Si](C)(C)C [Compound 11, (E)-methyl 4-amino-6-(4-chloro-3-fluorophenyl)-5-fluoro-3-(2-(trimethylsilyl)vinyl)picolinate] | 100% | – | 70% | 90% | 0% | 80% | 80% | 100%
6 | COC(=O)c1nc(-c2ccc(Cl)cc2)c(F)c(N)c1/C=C/[Si](C)(C)C [Compound 12, (E)-Methyl 4-amino-6-(4-chlorophenyl)-5-fluoro-3-(2-(trimethylsilyl)vinyl)picolinate] | 75% | 113 to 115 °C | 0% | 90% | 0% | 80% | 90% | 100%
7 | C[Si](C)(C)/C=C/c1c(C(=O)O)nc(-c2ccc(Cl)cc2)c(F)c1N [Compound 15, (E)-4-amino-6-(4-chlorophenyl)-5-fluoro-3-(2-(trimethylsilyl)vinyl)picolinic acid] | 100% | – | 70% | 90% | 80% | 90% | 80% | 90%
